Here are results for 22 compounds from patent publication US20250268877A1 (BIOGEN MA INC., priority 2020, published 2025).

In series [1] the target is IRAK4 (Homo sapiens (Human), UniProt Q9NWZ3). The series can be described thus: IRAK4 2-hour 1 mM ATP Biochemical Assay (MesoScale Detection format). To be noted: 100 pM IRAK4, read-out: IRAK4 IC50.
Procedure: The 2-hour 1 mM ATP Biochemical Assay employed a MesoScale Detection (MSD) format.
The activity was quenched with 11 μl of 70 mM EDTA, pH 8.
To detect the phosphorylated biotinylated peptide substrate, 30 μl of the quenched reaction mixture was added to equivalent wells of a 384 well streptavidin coated MesoScale plate (Meso Scale Discovery #L21SA-1). After a 1 hour incubation of the plate for 1 hour at room temperature with gentle mixing, the plate wells were washed 3 times with 50 mM Tris, pH 7.5, 150 mM NaCl, 0.02% Tween-20.
A 25 μl volume of 1:500 anti-P-Threonine Rabbit polyclonal Antibody plus 1:500 Goat-anti-Rabbit Sulfo Tag Antibody (Meso Scale Discovery R^32AB-1) in 50 mM Tris, pH 7.5, 150 mM NaCl, 0.02% Tween-20 plus 2% BSA was then added to each well. After a 1-hour incubation of the plate for 1 hour at room temperature with gentle mixing, the plate wells were washed, 3 times with 50 mM Tris, pH 7.5, 150 mM NaCl, 0.02% Tween-20.
Series [2] is described as follows: Kinetic solubility assay (CLND), potassium phosphate buffer pH 6.8. In kind it is physicochemical. To be noted: potassium phosphate buffer, pH 6.8, aqueous buffer, kinetic from dmso stock, pH 6.8, 2% DMSO, 24 hours at ambient temperature.
Source text: • Inject filtrates into the nitrogen detector for quantification on Analiza's Automated Discovery Workstation (ADW). • Solubility results generated in μg/mL
Series [3] concerns the target MDR1 (Homo sapiens (Human), UniProt P08183). The series can be described thus: MDR1-MDCK assay (apparent permeability, efflux ratio). The conditions noted are these: human, MDCK-MDR1, 1 μM, read-out: MDR1-MDCK_Efflux Ratio. Format: in vitro ADME.
Series [4] can be described thus: Kpuu assay (in vivo brain-to-plasma partition, unbound). The conditions noted are these: intravenous infusion 4 to 24 h, unbound drug partition coefficient; for Kp: brain (unbound) versus plasma (unbound), read-out: Brain Kpu,u.
Procedure: For the brain-to-plasma partition coefficient (Kp) evaluation, a dosing solution was intravenously infused into animals at a constant flow rate for 4 to 24 h. Blood samples were serially collected during infusion, and CSF and brain samples were harvested at the end of infusion.
Tissue samples were typically homogenized in phosphate buffer saline (PBS) using a bead ruptor.
CSF samples were typically diluted with 8% BSA in PBS to prevent from non-specific binding. Artificial CSF (aCSF) is used as the surrogate matrix.
Calibration curves were prepared by spiking the analyte(s) into blank matrices, which were processed together with plasma, tissue homogenate and/or CSF samples by protein precipitation using a proper organic solvent (e.g. acetonitrile and methanol) containing generic analogue internal standards (e.g. verapamil, chrysin and glyburide). Matrix matching was used when analyzing multiple matrices in the same run. Samples above the upper limit of quantitation (ULOQ) needed to be diluted into the calibration range using either a pre-extraction or post-extraction dilution approach.
Processed samples were analyzed by LC-MS/MS using a proper method performing within the acceptable sensitivity, selectivity, precision and accuracy. For an analytical run to be accepted, over 75% of the calibration standards in the dual calibration curves needed to be within 20% of the nominal concentrations.
Brain concentrations were compared against plasma concentrations at the corresponding timepoint for the calculation of partition coefficient (Kp).
Unbound drug partition coefficient (Kpuu), defined as the ratio of unbound drug partition across the blood-brain barrier, was calculated using the equation below:
[formula] • Cb: measured total drug concentration in brain • Fub: unbound drug fraction in brain • Cp: measured total drug concentration in plasma • Fup: unbound drug fraction in plasma Compound- or study-specific PK analysis that deviates from the typical procedure might be used when necessary, which will be documented in a study specific protocol included in the data upload.
Mix thoroughly. • This spiked plasma solution is shown in FIG. 1. • 3) Prepare a chilled ‘crash’ solution of internal standard in a solvent solution. • Pipette 200 μL of 25 ng/mL solution of internal standard, CPDPX (8-Cyclopentyl-1,3-dipropylxanthine, Sigma-Aldrich, C101) in 1:1 acetonitrile/methanol solvent solution into a 1 mL 96-well plate. • Chill on ice or refrigerate at 4° C. • This solution becomes the ‘Crash’ plate in FIG. 1. • 4) From remaining spiked plasma, remove 50 μL (T=0 h) of each plasma sample and place into a crash plate which contains 200 μL. To matrix match, add 50 μL of blank buffer to the crashed sample (similar to PPB samples). […] Mix crash plate thoroughly. • From remaining spiked plasma, remove 50 μL (T=4 h) of each plasma sample and place into a crash plate. To matrix match, add 50 μL of blank buffer to the crashed sample (similar to the protein binding samples). • Centrifuge crash plate at 3900 rpm for 10 minutes at 4° C.
% Free=(PAR of buffer side/PAR of plasma side)*100 • PAR—Peak area ratio (PAR)
Fu=% Free/100 • Fu=fraction unbound

Converted amounts (≈) assume the structure as drawn.

IRAK4, sequence (Q9NWZ3 whole entry): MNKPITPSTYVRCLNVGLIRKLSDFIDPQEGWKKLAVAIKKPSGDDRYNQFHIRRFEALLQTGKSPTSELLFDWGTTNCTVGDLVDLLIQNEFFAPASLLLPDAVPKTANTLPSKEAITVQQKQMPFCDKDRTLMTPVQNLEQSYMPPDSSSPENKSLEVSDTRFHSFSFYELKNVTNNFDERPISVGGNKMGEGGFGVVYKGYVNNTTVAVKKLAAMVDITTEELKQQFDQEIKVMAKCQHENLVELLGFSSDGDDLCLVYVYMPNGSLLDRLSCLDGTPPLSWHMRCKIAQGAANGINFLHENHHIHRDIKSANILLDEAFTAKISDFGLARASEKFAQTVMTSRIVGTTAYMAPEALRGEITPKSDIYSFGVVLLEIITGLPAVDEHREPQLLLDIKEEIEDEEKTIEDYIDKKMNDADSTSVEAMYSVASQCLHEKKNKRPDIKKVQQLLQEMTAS
MDR1, sequence (P08183 whole entry, the tested form may be a part): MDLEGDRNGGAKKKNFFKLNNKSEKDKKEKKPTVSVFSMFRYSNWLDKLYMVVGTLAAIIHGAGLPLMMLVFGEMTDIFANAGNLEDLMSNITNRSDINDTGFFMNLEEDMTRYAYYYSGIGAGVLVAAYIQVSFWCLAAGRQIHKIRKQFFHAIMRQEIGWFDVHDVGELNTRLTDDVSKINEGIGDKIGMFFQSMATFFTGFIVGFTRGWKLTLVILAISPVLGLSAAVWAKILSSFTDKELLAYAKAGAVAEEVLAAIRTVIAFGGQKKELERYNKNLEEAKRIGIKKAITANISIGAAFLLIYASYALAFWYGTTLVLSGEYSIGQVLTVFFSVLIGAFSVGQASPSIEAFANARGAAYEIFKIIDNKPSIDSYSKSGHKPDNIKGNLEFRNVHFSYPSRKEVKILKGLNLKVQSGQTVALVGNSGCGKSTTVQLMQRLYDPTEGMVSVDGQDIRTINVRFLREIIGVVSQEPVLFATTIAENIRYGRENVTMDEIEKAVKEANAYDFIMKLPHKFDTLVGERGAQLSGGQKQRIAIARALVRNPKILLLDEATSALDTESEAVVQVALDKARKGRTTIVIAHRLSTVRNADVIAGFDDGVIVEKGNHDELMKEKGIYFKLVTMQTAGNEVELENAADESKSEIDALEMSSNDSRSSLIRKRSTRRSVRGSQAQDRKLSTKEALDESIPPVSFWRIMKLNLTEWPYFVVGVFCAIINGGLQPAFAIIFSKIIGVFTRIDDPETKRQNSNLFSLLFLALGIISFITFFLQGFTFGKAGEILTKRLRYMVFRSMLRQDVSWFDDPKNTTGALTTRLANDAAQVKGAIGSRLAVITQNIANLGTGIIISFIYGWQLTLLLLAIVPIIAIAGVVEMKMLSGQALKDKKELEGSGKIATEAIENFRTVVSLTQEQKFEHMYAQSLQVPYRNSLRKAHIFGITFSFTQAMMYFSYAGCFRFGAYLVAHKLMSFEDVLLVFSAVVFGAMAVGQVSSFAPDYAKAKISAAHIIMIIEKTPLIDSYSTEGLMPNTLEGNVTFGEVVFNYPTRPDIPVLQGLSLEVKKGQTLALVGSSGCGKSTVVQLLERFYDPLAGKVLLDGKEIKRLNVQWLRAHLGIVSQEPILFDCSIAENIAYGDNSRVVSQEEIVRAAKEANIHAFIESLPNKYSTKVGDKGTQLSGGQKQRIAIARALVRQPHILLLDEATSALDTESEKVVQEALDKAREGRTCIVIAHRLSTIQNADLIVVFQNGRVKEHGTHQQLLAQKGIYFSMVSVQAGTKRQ

The term IC50 denotes the concentration that gives 50% inhibition. A word on the solubility: it is the concentration that dissolves in the medium under given conditions. Low readings indicate a poorly soluble substance, high ones a readily soluble substance. Turning to `CC12CC(n3cc4cc(C(=O)Nc5cccn([C@H]6C[C@H]6F)c5=O)c(OC5CCC5)nc4n3)(CO1)C2` [Example 27, 6-cyclobutoxy-N-(1-((1S,2R)-2-fluorocyclopropyl)-2-oxo-1,2-dihydropyridin-3-yl)-2-(1-methyl-2-oxabicyclo[2.1.1]hexan-4-yl)-2H-pyrazolo[3,4-b]pyridine-5-carboxamide], in series [1], the IC50 was 0.1 nM. Besides, the solubility at 24 h in series [2] was determined as 1.2 µg/mL (≈ 2.5 µM). In series [3], the efflux ratio at 120 min, 1 μM came out at 5.38. For the same compound, the Kp in series [4] was 0.7.

As to `COCC12CC(n3cc4cc(C(=O)Nc5cccn(C6CC6)c5=O)c(OC(C)C)nc4n3)(CO1)C2` [Example 11, N-(1-cyclopropyl-2-oxo-1,2-dihydropyridin-3-yl)-6-isopropoxy-2-(1-(methoxymethyl)-2-oxabicyclo[2.1.1]hexan-4-yl)-2H-pyrazolo[3,4-b]pyridine-5-carboxamide], in series [1], the IC50 is 0.2 nM. Also, the solubility at 24 h in series [2] came to 36 µg/mL (≈ 75.1 µM). Also, in series [3], the efflux ratio at 120 min, 1 μM came to 4.8. Besides, the Kp in series [4] worked out at 0.9.

Consider `CC[C@H](C)Oc1nc2nn(C34COC(C)(C3)C4)cc2cc1C(=O)Nc1cccn(C2CC2)c1=O` [Example 15, (S)-6-(sec-butoxy)-N-(1-cyclopropyl-2-oxo-1,2-dihydropyridin-3-yl)-2-(1-methyl-2-oxabicyclo[2.1.1]hexan-4-yl)-2H-pyrazolo[3,4-b]pyridine-5-carboxamide], for which the IC50 in series [1] was 0.5 nM. Further, the efflux ratio at 120 min, 1 μM in series [3] is 1.4. Moreover, in series [4], the Kp stood at 0.9.

With `CC(C)Oc1cc2nn(C34COC(CF)(C3)C4)cc2cc1C(=O)Nc1cccn([C@@H]2C[C@H]2C)c1=O` (single isomer, unassigned) [Example 69], the IC50 in series [1] came out at 0.5 nM. This compound registered a solubility at 24 h in series [2] of 8.2 µg/mL (≈ 17.1 µM). The efflux ratio at 120 min, 1 μM in series [3] turned out to be 1.74. Moreover, the Kp in series [4] turned out to be 0.7.

For the compound `C[C@@]12CC[C@@](n3cc4cc(C(=O)Nc5cccn(C6CC6)c5=O)c(OC5CCC5)cc4n3)(CO1)C2` (single isomer, unassigned) [Example 40], the IC50 in series [1] stood at 0.4 nM. Moreover, the solubility at 24 h in series [2] turned out to be 19.9 µg/mL (≈ 41.9 µM). Also, the efflux ratio at 120 min, 1 μM in series [3] came out at 1.32. For the same compound, the “Brain Kpu,u” value in series [4] is on record as 0.8.

With `CC(C)Oc1nc2nn([C@@H]3CCCOC3)cc2cc1C(=O)Nc1cccn(C2CC2)c1=O` [Example 17, (R)—N-(1-cyclopropyl-2-oxo-1,2-dihydropyridin-3-yl)-6-isopropoxy-2-(tetrahydro-2H-pyran-3-yl)-2H-pyrazolo[3,4-b]pyridine-5-carboxamide], the IC50 in series [1] came out at 0.2 nM. The solubility at 24 h in series [2] was 50.4 µg/mL (≈ 115 µM). The efflux ratio at 120 min, 1 μM in series [3] was 2.6. In series [4], the Kp stood at 0.5.

For `COCC12CC(n3cc4cc(C(=O)Nc5cccn([C@H]6C[C@H]6C)c5=O)c(OC(C)C)nc4n3)(CO1)C2` [Example 77, 6-isopropoxy-2-(1-(methoxymethyl)-2-oxabicyclo[2.1.1]hexan-4-yl)-N-(1-((1S,2R)-2-methylcyclopropyl)-2-oxo-1,2-dihydropyridin-3-yl)-2H-pyrazolo[3,4-b]pyridine-5-carboxamide], the IC50 in series [1] came out at 0.4 nM. Also, the solubility at 24 h in series [2] was 51 µg/mL (≈ 103 µM). Further, the efflux ratio at 120 min, 1 μM in series [3] stood at 2.09. The Kp in series [4] turned out to be 0.9.

As to `CC(C)Oc1nc2nn(C34COC(C)(C3)C4)cc2cc1C(=O)Nc1cccn([C@H]2C[C@H]2F)c1=O` (single isomer, unassigned) [Example 34], the solubility at 24 h in series [2] came out at 24.9 µg/mL (≈ 53.3 µM). Moreover, in series [3], the efflux ratio at 120 min, 1 μM amounted to 3.8. In addition, the Kp in series [4] was 0.7.

As to `COCC12CC(n3cc4cc(C(=O)Nc5cccn(C6CC6)c5=O)c(OC(C)C)cc4n3)(CO1)C2` [Example 12, N-(1-cyclopropyl-2-oxo-1,2-dihydropyridin-3-yl)-6-isopropoxy-2-(1-(methoxymethyl)-2-oxabicyclo[2.1.1]hexan-4-yl)-2H-indazole-5-carboxamide], the IC50 in series [1] turned out to be 0.5 nM. This compound returned a solubility at 24 h in series [2] of 67.7 µg/mL (≈ 141 µM). Further, the efflux ratio at 120 min, 1 μM in series [3] amounted to 2.82. Besides, in series [4], the Kp amounted to 0.7.

For `CC(C)Oc1cc2nn([C@@]34CC[C@@](C)(C3)OC4)cc2cc1C(=O)Nc1cccn([C@@H]2C[C@H]2F)c1=O` (single isomer, unassigned) [Example 59], the IC50 in series [1] came out at 0.5 nM. The solubility at 24 h in series [2] is 55.4 µg/mL (≈ 115 µM). For the same compound, the efflux ratio at 120 min, 1 μM in series [3] was 1.59. In addition, the Kp in series [4] turned out to be 1.3.

Turning to `COCC12CC(n3cc4cc(C(=O)Nc5cccn([C@H]6C[C@@H]6F)c5=O)c(OC(C)C)cc4n3)(CO1)C2` (single isomer, unassigned) [Example 56], the IC50 in series [1] is 0.8 nM. The same compound came in with a solubility at 24 h in series [2] of 63.9 µg/mL (≈ 129 µM). Also, in series [3], the efflux ratio at 120 min, 1 μM was determined as 3.31.

As to `COCC12CC(n3cc4cc(C(=O)Nc5cccn([C@H]6C[C@@H]6F)c5=O)c(OC5CCC5)cc4n3)(CO1)C2` (single isomer, unassigned) [Example 58], in series [1], the IC50 worked out at 1.5 nM. Moreover, in series [2], the solubility at 24 h is 52.3 µg/mL (≈ 103 µM). For the same compound, the efflux ratio at 120 min, 1 μM in series [3] came to 4.05.

Take `COCC12CC(n3cc4cc(C(=O)Nc5cccn([C@@H]6C[C@H]6F)c5=O)c(OC5CCC5)nc4n3)(CO1)C2` (single isomer, unassigned) [Example 65]: the IC50 in series [1] came to 0.8 nM. The solubility at 24 h in series [2] turned out to be 13 µg/mL (≈ 25.5 µM). Besides, the efflux ratio at 120 min, 1 μM in series [3] amounted to 3.22.

As to `CC(C)Oc1cc2nn(C34COC(C3)C4)cc2cc1C(=O)Nc1cccn([C@H]2C[C@H]2C)c1=O` [Example 79, 2-(2-oxabicyclo[2.1.1]hexan-4-yl)-6-isopropoxy-N-(1-((1S,2R)-2-methylcyclopropyl)-2-oxo-1,2-dihydropyridin-3-yl)-2H-indazole-5-carboxamide], in series [1], the IC50 came out at 0.8 nM. Moreover, the solubility at 24 h in series [2] amounted to 55.8 µg/mL (≈ 124 µM). Further, the efflux ratio at 120 min, 1 μM in series [3] is 2.56.

Regarding `C[C@@H]1C[C@@H]1n1cccc(NC(=O)c2cc3cn(C45COC(C)(C4)C5)nc3nc2OC2CC2)c1=O` [Example 89, 6-cyclopropoxy-2-(1-methyl-2-oxabicyclo[2.1.1]hexan-4-yl)-N-(1-((1S,2R)-2-methylcyclopropyl)-2-oxo-1,2-dihydropyridin-3-yl)-2H-pyrazolo[3,4-b]pyridine-5-carboxamide], the IC50 in series [1] came out at 0.9 nM. In addition, the solubility at 24 h in series [2] stood at 38.1 µg/mL (≈ 82.6 µM). In series [3], the efflux ratio at 120 min, 1 μM worked out at 2.28.

For `C[C@]12CC[C@](n3cc4cc(C(=O)Nc5cccn(C6CC6)c5=O)c(OC5CCC5)nc4n3)(CO1)C2` [Example 7, 6-cyclobutoxy-N-(1-cyclopropyl-2-oxo-1,2-dihydropyridin-3-yl)-2-((1R,4R)-1-methyl-2-oxabicyclo[2.2.1]heptan-4-yl)-2H-pyrazolo[3,4-b]pyridine-5-carboxamide], the IC50 in series [1] stood at 0.7 nM. For the same compound, the solubility at 24 h in series [2] amounted to 10.3 µg/mL (≈ 21.6 µM). Further, the efflux ratio at 120 min, 1 μM in series [3] is 1.43.

On to `CC(C)Oc1cc2nn([C@]34CC[C@](C)(C3)OC4)cc2cc1C(=O)Nc1cccn(C2CC2)c1=O` [Example 3, N-(1-cyclopropyl-2-oxo-1,2-dihydropyridin-3-yl)-6-isopropoxy-2-((1R,4R)-1-methyl-2-oxabicyclo[2.2.1]heptan-4-yl)-2H-indazole-5-carboxamide], for which, in series [1], the IC50 worked out at 0.5 nM. The compound also yielded a solubility at 24 h in series [2] of 7.9 µg/mL (≈ 17.1 µM). For the same compound, the efflux ratio at 120 min, 1 μM in series [3] stood at 1.59.

With `COC[C@@]12CC[C@@](n3cc4cc(C(=O)Nc5cccn(C6CC6)c5=O)c(OC(C)C)nc4n3)(CO1)C2` [Example 30, N-(1-cyclopropyl-2-oxo-1,2-dihydropyridin-3-yl)-6-isopropoxy-2-((1S,4S)-1-(methoxymethyl)-2-oxabicyclo[2.2.1]heptan-4-yl)-2H-pyrazolo[3,4-b]pyridine-5-carboxamide], the IC50 in series [1] was found to be 0.2 nM. The efflux ratio at 120 min, 1 μM in series [3] was found to be 2.58. Also, the Kp in series [4] amounted to 0.6.

Turning to `COCC12CC(n3cc4cc(C(=O)Nc5cccn([C@@H]6C[C@H]6F)c5=O)c(OC(C)C)cc4n3)(CO1)C2` (single isomer, unassigned) [Example 55], the IC50 in series [1] worked out at 0.8 nM. In addition, in series [2], the solubility at 24 h is 60.5 µg/mL (≈ 122 µM). For the same compound, the efflux ratio at 120 min, 1 μM in series [3] amounted to 3.71.

For the compound `CC[C@@H](C)Oc1nc2nn(C34COC(C)(C3)C4)cc2cc1C(=O)Nc1cccn(C2CC2)c1=O` [Example 14, (R)-6-(sec-butoxy)-N-(1-cyclopropyl-2-oxo-1,2-dihydropyridin-3-yl)-2-(1-methyl-2-oxabicyclo[2.1.1]hexan-4-yl)-2H-pyrazolo[3,4-b]pyridine-5-carboxamide], in series [1], the IC50 worked out at 1.4 nM. The compound also registered a solubility at 24 h in series [2] of 43 µg/mL (≈ 92.8 µM). Further, the efflux ratio at 120 min, 1 μM in series [3] is 2.27.

In the case of `CC(C)Oc1cc2nn(C34COC(CF)(C3)C4)cc2cc1C(=O)Nc1cccn([C@H]2C[C@H]2C)c1=O` [Example 82, 2-(1-(fluoromethyl)-2-oxabicyclo[2.1.1]hexan-4-yl)-6-isopropoxy-N-(1-((1S,2R)-2-methylcyclopropyl)-2-oxo-1,2-dihydropyridin-3-yl)-2H-indazole-5-carboxamide], in series [1], the 50% inhibitory concentration (IC50) is 0.7 nM. The same compound showed a solubility at 24 h in series [2] of 33.8 µg/mL (≈ 70.3 µM). Moreover, in series [3], the efflux ratio at 120 min, 1 μM came to 2.17.

In the case of `C[C@@H]1C[C@@H]1n1cccc(NC(=O)c2cc3cn(C45COC(C)(C4)C5)nc3nc2OC2CCC2)c1=O` [Example 95, 6-cyclobutoxy-2-(1-methyl-2-oxabicyclo[2.1.1]hexan-4-yl)-N-(1-((1S,2R)-2-methylcyclopropyl)-2-oxo-1,2-dihydropyridin-3-yl)-2H-pyrazolo[3,4-b]pyridine-5-carboxamide], the IC50 in series [1] was 0.8 nM. For the same compound, in series [2], the solubility at 24 h was found to be 48.3 µg/mL (≈ 102 µM). The efflux ratio at 120 min, 1 μM in series [3] was found to be 1.09.
